Experimental data published in ChEMBL document CHEMBL5244223, “l,8-Naphthalimide based DNA intercalators and anticancer agents. A systematic review from 2007 to 2017” (Eur J Med Chem, 2018).

Key:
[1] = tested on: HCT-116; assay: Cytotoxicity against human HCT-116 cells assessed as inhibition of cell growth incubated for 72 hrs by MTT assay; format: functional, cell-based; details: HCT-116, 72 h
[2] = tested on: Clupea harengus; assay: Binding affinity to Atlantic herring DNA assessed as binding constant by fluorescence based EtBr-UV absorption spectral analysis
[3] = tested on: HL-60; assay: Cytotoxicity against human HL-60 cells assessed as inhibition of cell growth incubated for 96 hrs by MTT assay; format: functional, cell-based; details: HL-60, 96 h
[4] = tested on: U-937; assay: Cytotoxicity against human U-937 cells assessed as inhibition of cell growth incubated for 96 hrs by MTT assay; format: functional, cell-based; details: U-937, 96 h
[5] = biological target: Salmon testes DNA; assay: Binding affinity to salmon Testis DNA assessed as equilibrium binding constant by steady-state fluorescence spectroscopic analysis; details: Salmo salar
[6] = tested on: Staphylococcus aureus; assay: Antibacterial activity against Staphylococcus aureus ATCC25923 assessed as inhibition of bacterial growth incubated for 24 hrs by two-fold serial dilution assay; format: functional
[7] = tested on: Staphylococcus aureus; assay: Antibacterial activity against methicillin-resistant Staphylococcus aureus N315 assessed as inhibition of bacterial growth incubated for 24 hrs by two-fold serial dilution assay; format: functional
[8] = tested on: Pseudomonas aeruginosa; assay: Antibacterial activity against Pseudomonas aeruginosa assessed as inhibition of bacterial growth incubated for 24 hrs by two-fold serial dilution assay; format: functional
[9] = tested on: Micrococcus luteus; assay: Antibacterial activity against Micrococcus luteus assessed as inhibition of bacterial growth incubated for 24 hrs by two-fold serial dilution assay; format: functional
[10] = tested on: Proteus; assay: Antibacterial activity against Proteus ATCC13315 assessed as inhibition of bacterial growth incubated for 24 hrs by two-fold serial dilution assay; format: functional
[11] = tested on: Escherichia coli; assay: Antibacterial activity against Escherichia coli JM109 assessed as inhibition of bacterial growth incubated for 24 hrs by two-fold serial dilution assay; format: functional
[12] = tested on: Bacillus subtilis; assay: Antibacterial activity against Bacillus subtilis ATCC6633 assessed as inhibition of bacterial growth incubated for 24 hrs by two-fold serial dilution assay; format: functional
[13] = tested on: Salmonella typhi; assay: Antibacterial activity against Salmonella enterica subsp. enterica serovar Typhi assessed as inhibition of bacterial growth incubated for 24 hrs by two-fold serial dilution assay; format: functional
[14] = tested on: Jurkat; assay: Antiproliferative activity against human Jurkat cells assessed as inhibition of cell proliferation incubated for 72 hrs by MTT assay; format: functional, cell-based
[15] = tested on: Calf thymus DNA; assay: Binding affinity to calf thymus DNA assessed as binding constant by fluorescence based EtBr-displacement based UV-Vis spectroscopic analysis; format: nucleic-acid assay; details: Bos taurus
[16] = tested on: HepG2; assay: Cytotoxicity against human HepG2 cells assessed as inhibition of cell growth incubated for 48 hrs by MTT assay; format: functional, cell-based; details: HepG2, 48 h
[17] = tested on: HCT-116; assay: Cytotoxicity against human HCT-116 cells assessed as inhibition of cell growth incubated for 48 hrs by MTT assay; format: functional, cell-based; details: HCT-116, 48 h
[18] = tested on: K562; assay: Cytotoxicity against human K562 cells assessed as inhibition of cell growth incubated for 48 hrs by MTT assay; format: functional, cell-based; details: K562, 48 h
[19] = tested on: SMMC-7721; assay: Cytotoxicity against human SMMC-7721 cells assessed as inhibition of cell growth incubated for 48 hrs by MTT assay; format: functional, cell-based; details: SMMC-7721, 48 h
[20] = tested on: BGC-823; assay: Antiproliferative activity against human BGC-823 cells assessed as inhibition of cell proliferation incubated for 24 hrs by MTT assay; format: functional, cell-based; details: BGC-823, 24 h
[21] = tested on: MCF7; assay: Antiproliferative activity against human MCF7 cells assessed as inhibition of cell proliferation incubated for 24 hrs by MTT assay; format: functional, cell-based; details: MCF7, 24 h
[22] = tested on: L02; assay: Antiproliferative activity against human HL7702 cells assessed as inhibition of cell proliferation incubated for 24 hrs by MTT assay; format: functional, cell-based; details: L02, 24 h
[23] = tested on: HeLa; assay: Cytotoxicity against human HeLa cells assessed as inhibition of cell growth by MTT assay; format: functional, cell-based
[24] = tested on: Calf thymus DNA; assay: Binding affinity to calf thymus DNA assessed as DNA intercalation by measuring change in melting temperature by thermal denaturation assay; format: nucleic-acid assay; details: Bos taurus

## O=C1c2cccc3cccc(c23)C(=O)N1CCCNCCCN(CCCl)CCCl
[1]
  IC50: 1.4 µM

## CN(C)CCNCCCN1C(=O)c2cccc3cccc(c23)C1=O
[2]
  Kb: 1.15 10^4/M

## O=C1c2cccc3c([N+](=O)[O-])ccc(c23)C(=O)N1CCCO
[3]
  IC50: 0.7 µM
[4]
  IC50: 0.7 µM

## Nc1ccc2c3c(cccc13)C(=O)N(CC[n+]1ccccc1)C2=O
[5]
  Kb: 1.38 10^5/M

## NCCCCNCCCCN1C(=O)c2cccc3cccc(c23)C1=O
[2]
  Kb: 1.15 10^4/M

## O=C1c2cccc3c(Sc4nc5ccccc5n4Cc4cccc(F)c4)ccc(c23)C(=O)N1CCCCn1cncn1
[6]
  MIC: > 512 mg/L
[7]
  MIC: > 512 mg/L
[8]
  MIC: > 512 mg/L
[9]
  MIC: > 512 mg/L
[10]
  MIC: > 512 mg/L
[11]
  MIC: > 512 mg/L
[12]
  MIC: > 512 mg/L
[13]
  MIC: > 512 mg/L

## O=C1c2cccc3cccc(c23)C(=O)N1CCCCCC/N=C/c1ccccn1
[14]
  IC50: 5.58 µM

## O=C1c2cccc3cccc(c23)C(=O)N1CCNCc1ccccn1
[14]
  IC50: 5.58 µM

## NCCCNCCCCN1C(=O)c2cccc3cccc(c23)C1=O
[2]
  Kb: 1.15 10^4/M

## O=C1c2cccc3cccc(c23)C(=O)N1CCCN(CCCN(CCO)CCO)CCCN1C(=O)c2cccc3cccc(c23)C1=O
[1]
  IC50: 0.82 µM

## O=C1c2cccc3c([N+](=O)[O-])ccc(c23)C(=O)N1c1ccc(-c2cc[n+]3c(c2)-c2cccc[n+]2CC3)cc1
[15]
  K: 1.7 10^7/M

## O=C1c2cccc3c([N+](=O)[O-])ccc(c23)C(=O)N1CCO
[3]
  IC50: 0.7 µM
[4]
  IC50: 0.7 µM

## NCCNCCCCCN1C(=O)c2cccc3cccc(c23)C1=O
[2]
  Kb: 1.15 10^4/M

## Nc1ccc2c3c(cccc13)C(=O)N(c1cccc(-c3cc[n+]4c(c3)-c3cccc[n+]3CC4)c1)C2=O
[15]
  K: 2.3 10^6/M

## CCCCOC(=O)c1ccc2c3c(cccc13)C(=O)N(CCN(C)C)C2=O
[16]
  IC50: > 50 µM
[17]
  IC50: > 50 µM
[18]
  IC50: > 50 µM
[19]
  IC50: > 50 µM

## NCCNCCCN1C(=O)c2cccc3cccc(c23)C1=O
[2]
  Kb: 1.15 10^4/M

## O=C1c2cccc3cccc(c23)C(=O)N1CCCN(CCCN(CCCl)CCCl)CCCN1C(=O)c2cccc3cccc(c23)C1=O
[1]
  IC50: 0.35 µM

## O=C1c2cccc3c(Sc4nc5ccccc5n4Cc4ccccc4Cl)ccc(c23)C(=O)N1CCCCn1cncn1
[6]
  MIC: > 512 mg/L
[7]
  MIC: > 512 mg/L
[8]
  MIC: > 512 mg/L
[9]
  MIC: > 512 mg/L
[10]
  MIC: > 512 mg/L
[11]
  MIC: > 512 mg/L
[12]
  MIC: > 512 mg/L
[13]
  MIC: > 512 mg/L

## O=C1c2cccc3c(Sc4nc5ccccc5n4Cc4ccc(F)cc4F)ccc(c23)C(=O)N1CCCCn1cncn1
[6]
  MIC: > 512 mg/L
[7]
  MIC: > 512 mg/L
[8]
  MIC: > 512 mg/L
[9]
  MIC: > 512 mg/L
[10]
  MIC: > 512 mg/L
[11]
  MIC: > 512 mg/L
[12]
  MIC: > 512 mg/L
[13]
  MIC: > 512 mg/L

## O=C1c2cccc3c(Sc4nc5ccccc5n4Cc4ccc(Cl)cc4Cl)ccc(c23)C(=O)N1CCCCn1c[n+](Cc2ccccc2Cl)cn1
[6]
  MIC: 2 mg/L
[7]
  MIC: 2 mg/L
[8]
  MIC: 2 mg/L
[9]
  MIC: 2 mg/L
[10]
  MIC: 2 mg/L
[11]
  MIC: 2 mg/L
[12]
  MIC: 2 mg/L
[13]
  MIC: 2 mg/L

## COC(=O)c1ccc2c3c(cccc13)C(=O)N(CCN(C)C)C2=O
[16]
  IC50: 13.7 µM
[17]
  IC50: 13.7 µM
[18]
  IC50: 13.7 µM
[19]
  IC50: 13.7 µM

## O=C1c2cccc3cccc(c23)C(=O)N1CCCNCCCN(CCO)CCO
[1]
  IC50: 6.96 µM

## O=C1c2cccc3c(Sc4nc5ccccc5n4Cc4cccc(Cl)c4)ccc(c23)C(=O)N1CCCCn1cncn1
[6]
  MIC: > 512 mg/L
[7]
  MIC: > 512 mg/L
[8]
  MIC: > 512 mg/L
[9]
  MIC: > 512 mg/L
[10]
  MIC: > 512 mg/L
[11]
  MIC: > 512 mg/L
[12]
  MIC: > 512 mg/L
[13]
  MIC: > 512 mg/L

## CCCCCCCCNN1C(=O)c2cccc3c2c(cc2[nH]c(-c4c[nH]c5ccccc45)nc23)C1=O
[20]
  IC50: 0.7 µM
[21]
  IC50: 0.7 µM
[22]
  IC50: 0.7 µM

## O=C1c2cccc3cccc(c23)C(=O)N1CCCNCCN(CCO)CCO
[1]
  IC50: > 40 µM

## CN(C)CCN1C(=O)c2cccc3c2c(cc2nc(C(F)(F)F)c(C(F)(F)F)nc23)C1=O
[23]
  IC50: 3.8 µM

## O=C1c2cccc3c2c(cc2[nH]c(-c4c[nH]c5ccccc45)nc23)C(=O)N1CCCO
[20]
  IC50: 0.7 µM
[21]
  IC50: 0.7 µM
[22]
  IC50: 0.7 µM

## CN(C)c1ccc2c3c(cccc13)C(=O)N(CCc1cc[n+](C)cc1)C2=O
[5]
  Kb: 1.38 10^5/M

## O=C1c2cccc3c([N+](=O)[O-])ccc(c23)C(=O)N1CCCl
[3]
  IC50: 0.3 µM
[4]
  IC50: 0.3 µM

## O=C1c2cccc3cccc(c23)C(=O)N1CCCCNCc1ccccn1
[14]
  IC50: 5.58 µM

## O=C1c2cccc3c2c(cc2[nH]c(-c4c[nH]c5ccccc45)nc23)C(=O)N1Nc1ccccc1
[20]
  IC50: 0.7 µM
[21]
  IC50: 0.7 µM
[22]
  IC50: 0.7 µM

## O=C1c2cccc3cccc(c23)C(=O)N1CCCC/N=C/c1ccccn1
[14]
  IC50: 5.58 µM

## CCCOC(=O)c1ccc2c3c(cccc13)C(=O)N(CCN(C)C)C2=O
[16]
  IC50: > 50 µM
[17]
  IC50: > 50 µM
[18]
  IC50: > 50 µM
[19]
  IC50: > 50 µM

## O=C1c2cccc3cccc(c23)C(=O)N1CCCN(CCCN1C(=O)c2cccc3cccc(c23)C1=O)CCN(CCO)CCO
[1]
  IC50: > 15 µM

## O=C1c2cccc3cccc(c23)C(=O)N1CC[n+]1ccccc1
[5]
  Kb: 2 10^4/M

## NCCNCCCCN1C(=O)c2cccc3cccc(c23)C1=O
[2]
  Kb: 1.15 10^4/M

## CCN(CC)CCN1C(=O)c2cccc3c2c(cc2[nH]c(-c4c[nH]c5ccccc45)nc23)C1=O
[20]
  IC50: 8.2 µM
[21]
  IC50: 8.2 µM
[22]
  IC50: 8.2 µM

## O=C1c2cccc3c(Sc4nc5ccccc5n4Cc4ccc(Cl)cc4)ccc(c23)C(=O)N1CCCCn1cncn1
[6]
  MIC: > 512 mg/L
[7]
  MIC: > 512 mg/L
[8]
  MIC: > 512 mg/L
[9]
  MIC: > 512 mg/L
[10]
  MIC: > 512 mg/L
[11]
  MIC: > 512 mg/L
[12]
  MIC: > 512 mg/L
[13]
  MIC: > 512 mg/L

## CCCCCOC(=O)c1ccc2c3c(cccc13)C(=O)N(CCN(C)C)C2=O
[16]
  IC50: > 50 µM
[17]
  IC50: > 50 µM
[18]
  IC50: > 50 µM
[19]
  IC50: > 50 µM

## CCOC(=O)c1ccc2c3c(cccc13)C(=O)N(CCN(C)C)C2=O
[16]
  IC50: 13.7 µM
[17]
  IC50: 13.7 µM
[18]
  IC50: 13.7 µM
[19]
  IC50: 13.7 µM

## Cc1ccc(-c2cc[n+]3c(c2)-c2cccc[n+]2CC3)cc1
[15]
  K: 2.8 10^6/M

## CN(C)CCN1C(=O)c2cccc3c2c(cc2nccnc23)C1=O
[24]
  ΔTm: 3.9 °C
[23]
  IC50: 1.9 µM

## O=C1c2cccc3c([N+](=O)[O-])ccc(c23)C(=O)N1CCCCl
[3]
  IC50: 0.3 µM
[4]
  IC50: 0.3 µM

## CN(C)CCN1C(=O)c2cccc3c2c(cc2[nH]c(-c4c[nH]c5ccccc45)nc23)C1=O
[20]
  IC50: 0.7 µM
[21]
  IC50: 0.7 µM
[22]
  IC50: 0.7 µM

## O=C1c2cccc3c(Sc4nc5ccccc5n4Cc4ccc(F)cc4)ccc(c23)C(=O)N1CCCCn1cncn1
[6]
  MIC: > 512 mg/L
[7]
  MIC: > 512 mg/L
[8]
  MIC: > 512 mg/L
[9]
  MIC: > 512 mg/L
[10]
  MIC: > 512 mg/L
[11]
  MIC: > 512 mg/L
[12]
  MIC: > 512 mg/L
[13]
  MIC: > 512 mg/L
